Measured values taken from paper PMC4510645, “Discovery of intramolecular trans-sialidases in human gut microbiota suggests novel mechanisms of mucosal adaptation” (Nature Communications, 2015).
Values joined by “and” are separate entries in the source; they are usually repeats but may differ in a detail not shown here. Equal values may be shown once. Read-outs that look alike come from different tables or passages of the source.

Legend:
RgNanH [1] = target: T1, RgNanH (Mediterraneibacter gnavus (Ruminococcus gnavus), UniProt A7B557); assay: Specificity against sialyl-oligosaccharides, HPAEC-PAD; assay type: biochemical, Ruminococcus gnavus ATCC 29149; parameters: key to Activity RgNanH: +: Activity was defined as disappearance of the substrate peak and appearance of a lower-molecular weight peak, which could correspond to the desialylated substrate; conditions: substrate 1 mM, 1 nM enzyme, 37 °C, pH 6.5, overnight
T1 sequence (A7B557 26-723): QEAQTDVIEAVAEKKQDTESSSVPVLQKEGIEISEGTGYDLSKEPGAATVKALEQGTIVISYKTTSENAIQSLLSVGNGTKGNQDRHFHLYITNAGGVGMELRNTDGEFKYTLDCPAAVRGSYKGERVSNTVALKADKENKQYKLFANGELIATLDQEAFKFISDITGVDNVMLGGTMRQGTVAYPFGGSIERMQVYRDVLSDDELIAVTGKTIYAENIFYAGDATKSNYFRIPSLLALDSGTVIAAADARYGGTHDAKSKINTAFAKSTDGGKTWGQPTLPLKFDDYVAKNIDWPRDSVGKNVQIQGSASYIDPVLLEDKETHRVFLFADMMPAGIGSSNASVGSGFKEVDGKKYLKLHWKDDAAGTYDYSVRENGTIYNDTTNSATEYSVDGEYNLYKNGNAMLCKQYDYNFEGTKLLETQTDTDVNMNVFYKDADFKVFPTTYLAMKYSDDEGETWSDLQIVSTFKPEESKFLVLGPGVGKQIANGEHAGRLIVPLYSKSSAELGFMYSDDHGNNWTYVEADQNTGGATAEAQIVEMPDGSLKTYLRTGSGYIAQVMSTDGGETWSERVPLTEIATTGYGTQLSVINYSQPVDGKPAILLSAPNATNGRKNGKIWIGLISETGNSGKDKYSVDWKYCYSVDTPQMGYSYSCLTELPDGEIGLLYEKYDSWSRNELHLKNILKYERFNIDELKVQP
Procedure: (§1) Figure 2 Specificity of RgNanH towards sialylated oligosaccharides. The enzymes were incubated with sialylated substrates at 37 °C, pH 6.5, overnight and the reaction products were analysed by HPAEC-PAD. Control reactions without enzyme were also performed. The injection peak is marked (inj). Glycerol (gly) was also present in AkmNan0625. (a) Standards (Lac, Neu5Ac, 3′SL and 6′SL), (b) 3′SL, (c) 6′SL and (d) 3'-α-sialyl-N-acetyllactosamine (3′SLacNAc). AkmNan1835 has a similar profile to […].
(§2) The purified enzymes were incubated with the substrate in buffer made from 20 mM Na2HPO4 and 20 mM NaH2PO4 adjusted to pH 6.5 containing 1 mg ml^−1 BSA at 37 °C unless otherwise stated. For 4MU-Neu5Ac, the progression of the reaction was monitored by the release of the MU using a 96-well plate reader (BMG Labtech, Ortenberg, Germany) using fluorescence with an excitation at 340 nm and an emission at 420 nm. For determining the optimal temperature, the assay was carried out in 20 mM PBS at pH 7.4. For determining the optimal pH, the assay was carried out at 37 °C using buffer made from 20 mM Na2HPO4 and 20 mM NaH2PO4 in varying proportions to obtain the desired pH. PNP release from PNP-Neu5Ac was monitored in a similar way measuring absorbance at 405 nm every 60 s. For 3′SL, the reaction was monitored by HPAEC-PAD. An aliquot of the reaction was removed from the main reaction volume at the reaction stopped by boiling for 20 min, the enzyme was then removed by centrifugation at 17,000g for 10 min and filtration with a 0.2-μm filter (Millipore, Billerica, USA). The sugars were separated by HPAEC with an isocratic gradient of 100 mM NaOH and 100 mM NaAC at 1 ml min^−1 on a CarboPac PA1 protected with a guard column and detected using PAD on a Dionex ICS5000 system (Thermo Scientific, Hemel Hempstead, UK). The column was cleaned with 10 ml of 500 mM NaOH and 500 mM NaAc, and the column was re-equilibrated with 100 mM NaOH and 100 mM NaAc. An internal standard of fucose was used to quantify the results.
(§3) For specificity tests against sialylated oligosaccharides (1 mM) and glycoproteins (1 mg ml^−1), 1 nM of enzyme was incubated with the substrate at 37 °C, pH 6.5, overnight.

[2] = system: AkmNan0625 and AkmNan1835; assay: Specificity against sialyl-oligosaccharides, HPAEC-PAD (control sialidases); assay type: biochemical, Akkermansia muciniphila; parameters: key to Activity AkmNan0625 and AkmNan1835: +: Activity was defined as disappearance of the substrate peak and appearance of a lower-molecular weight peak, which could correspond to the desialylated substrate; conditions: substrate 1 mM, 1 nM enzyme, 37 °C, pH 6.5, overnight
Procedure: as §1
All chemicals were obtained from Sigma (St Louis, USA) unless otherwise stated. The A. muciniphila sialidases, termed here AkmNan0625 and AkmNan1835, were obtained by His-Tag overexpression of their genes (Amuc_0625 and Amuc_1835, respectively)[56] in E. coli BL21(DE3) and subsequent purification to homogeneity by immobilized metal affinity chromatography as described below. The sialylated oligosaccharides and OC were obtained from Carbosynth (Berks, UK).
as §2, §3

RgNanH [3] = target: T1, RgNanH; assay: Inhibition of RgNanH activity against 4MU-Neu5Ac by neuraminidase inhibitors; assay type: biochemical, Ruminococcus gnavus ATCC 29149; conditions: for LogIC50 / IC50: 4MU-Neu5Ac 0.51 mM, pre-incubated 15 min at 37 °C, pH 6.5
Procedure: Figure 1 Kinetic analysis of the hydrolysis of sialylated substrates by RgNanH in presence or absence of inhibitors. Substrate (a) 4MU-Neu5Ac or (b) PNP-Neu5Ac was incubated with RgNanH ([…] and 0.43 nM, respectively) at 37 °C, pH 6.5 and the release of product measured using a plate reader. (c) Inhibition of RgNanH (1.00 nM) incubated with 4MU-Neu5Ac (0.51 mM) by zanamivir (●), Neu5Ac2en (▪), siastatin B (▴) and OC (♦), the rates are normalized to a % of the uninhibited rate. [I] is the inhibitor concentration. (d) 3′SL was incubated with RgNanH (2.25 nM) and the release of product measured by HPAEC-PAD. Experiments were done at least in duplicate (usually triplicate) and the error bars show the s.e.m.
as §2, with “results. […]” for “results.”

RgNanH [4] = target: T1, RgNanH; assay: Kinetic parameters of RgNanH with sialylated substrates; assay type: biochemical, Ruminococcus gnavus ATCC 29149; conditions: pH 6.5, 37 °C
Procedure: as §2
For 4MU-Neu5Ac and 3′SL, the rate of hydrolysis without enzyme was not significant, thus raw data were used. However, for pNP-Neu5Ac, the rate of hydrolysis without enzyme was significant, thus the rate with enzyme was corrected by the subtraction of the rate without enzyme at each concentration of substrate. For 3′SL, the rate of reaction was calculated by plotting the amount of substrate remaining over the course of >50 % of the reaction using the following equation[58]: […]
Where k is kcat/KM × enzyme concentration, t is time, [S0] and [St] are substrate concentrations at time 0 and t, respectively.
Kinetic data were obtained from at least duplicate (usually triplicate) experiments, and the kinetic parameters were calculated by fitting the initial raw data to the Michaelis–Menten equation using a nonlinear regression analysis programme (Prism 6, GraphPad, San Diego, USA), and error bars (s.e.m.) are shown.

CC(=O)N[C@H]1[C@H]([C@H](O)[C@H](O)CO)O[C@@](O[C@H]2[C@@H](O)[C@@H](CO)O[C@@H](O[C@H]3[C@H](O[C@@H]4O[C@@H](C)[C@@H](O)[C@@H](O)[C@@H]4O)[C@@H](NC(C)=O)C(O)O[C@@H]3CO)[C@@H]2O)(C(=O)O)C[C@@H]1O (stereo partly drawn) [3′-Sialyl Lewis X, Neu5Ac-α-2-3-Gal-β-1-4-[Fuc-a-1-3]-GlcNAc]
Activity RgNanH (RgNanH [1]): +
Activity AkmNan0625 and AkmNan1835 [2]: +

CC(=O)N[C@H]1[C@H]([C@H](O)[C@H](O)CO)OC(C(=O)O)=C[C@@H]1O [Neu5Ac2en, 2-deoxy-2,3-didehydro-D-N-acetylneuraminic acid]
LogIC50 (RgNanH [3]; RgNanH 1.00 nM): 0.15±0.04
IC50 (RgNanH [3]; RgNanH 1.00 nM, read-out: IC50): 1400 µM and 1410 µM

CC(=O)N[C@H]1[C@H]([C@H](O)[C@H](O)CO)O[C@@](Oc2ccc([N+](=O)[O-])cc2)(C(=O)O)C[C@@H]1O [PNP-Neu5Ac, 2-O-(p-nitrophenyl)-α-D-N-acetylneuraminic acid]
kcat (RgNanH [4]; substrate of RgNanH): <152 ^* min^−1
Km (RgNanH [4]; substrate of RgNanH, s.e.m.): > 25000 µM

CC(=O)N[C@H]1[C@H]([C@H](O)[C@H](O)CO)OC(OC[C@H]2OC(O)[C@H](O)[C@@H](O)[C@H]2O)(C(=O)O)C[C@@H]1O (stereo partly drawn) [6′-Sialylgalactose, Neu5Ac-α-2-6-Gal]
Activity AkmNan0625 and AkmNan1835 [2]: +

CCC(CC)O[C@@H]1C=C(C(=O)O)C[C@H](N)[C@H]1NC(C)=O [Oseltamivir carboxylate]
LogIC50 (RgNanH [3]; RgNanH 1.00 nM): −1.53±0.02
IC50 (RgNanH [3]; RgNanH 1.00 nM, read-out: IC50): 29.6 µM
improvement in inhibition of RgNanH (RgNanH [3]; compared with Neu5Ac2en (IC50: 1.4 mM to 30 μM)): ~50 fold

CO[C@@H]1O[C@H](CO)[C@@H](O[C@@H]2O[C@H](CO)[C@H](O)[C@H](O[C@]3(C(=O)O)C[C@H](O)[C@@H](NC(C)=O)[C@H]([C@H](O)[C@H](O)CO)O3)[C@H]2O)[C@H](O[C@@H]2O[C@@H](C)[C@@H](O)[C@@H](O)[C@@H]2O)[C@H]1NC(C)=O [3′-Sialyl Lewis X methyl glycoside, Neu5Ac-α-2-3-Gal-β-1-4-[Fuc-a-1-3]-GlcNAc-β-OMe]
Activity RgNanH (RgNanH [1]): +
Activity AkmNan0625 and AkmNan1835 [2]: +

CC(=O)NC1C(O)CC(OC2C(O)C(O)OC(CO)C2O)(C(=O)O)OC1C(O)C(O)CO (stereo not drawn) [3′-Sialylgalactose, Neu5Ac-α-2-3-Gal]
Activity RgNanH (RgNanH [1]): +
Activity AkmNan0625 and AkmNan1835 [2]: +

CC(=O)N[C@H]1[C@H]([C@H](O)[C@H](O)CO)OC(C(=O)O)=C[C@@H]1N=C(N)N [Zanamivir, 4-guanidino-Neu5Ac2en]
IC50 (RgNanH [3]; IC50, RgNanH 1.00 nM): ~12000 µM
LogIC50 (RgNanH [3]; RgNanH 1.00 nM): 1.08±0.07
IC50 (RgNanH [3]; RgNanH 1.00 nM, read-out: IC50): 11900 µM

CC(=O)N[C@H]1[C@H]([C@H](O)[C@H](O)CO)O[C@@](O[C@H]2[C@@H](O)[C@@H](CO)O[C@@H](O[C@H]3[C@H](O[C@@H]4O[C@@H](C)[C@@H](O)[C@@H](O)[C@@H]4O)[C@@H](O)C(O)O[C@@H]3CO)[C@@H]2O)(C(=O)O)C[C@@H]1O (stereo partly drawn) [3′-Sialyl-3-fucosyllactose, Neu5Ac-α-2-3-Gal-β1-4-[Fuc-α-1-3]-Glc]
Activity RgNanH (RgNanH [1]): +
Activity AkmNan0625 and AkmNan1835 [2]: +

Neu5Ac-α-2-6-Gal-β-1-4-GlcNAc [6′-α-Sialyl-N-acetyllactosamine]
Activity AkmNan0625 and AkmNan1835 [2]: +

Neu5Ac-α-2-3-Gal-β-1-4-GlcNAc [3′-α-Sialyl-N-acetyllactosamine]
Activity RgNanH (RgNanH [1]): +
Activity AkmNan0625 and AkmNan1835 [2]: +

CC(=O)N[C@@H]1[C@@H](O)C[C@](Oc2ccc3c(C)cc(=O)oc3c2)(C(=O)O)O[C@H]1C(O)[C@H](O)CO (stereo partly drawn) [4MU-Neu5Ac, 2′-(4-methylumbelliferyl)-α-D-N-acetylneuraminic acid]
Ki (RgNanH [4]; substrate inhibition, s.e.m.): 2370 ± 650 µM
kcat (RgNanH [4]; substrate of RgNanH): 6210 min⁻¹
Km (RgNanH [4]; substrate of RgNanH, s.e.m.): 590 ± 170 µM
Vmax (RgNanH [4]; substrate of RgNanH, s.e.m.): 1.37 ± 0.23 µM/min

CC(=O)N[C@H]1NC[C@H](C(=O)O)[C@H](O)[C@@H]1O [Siastatin B]
LogIC50 (RgNanH [3]; RgNanH 1.00 nM): −2.31±0.02
IC50 (RgNanH [3]; RgNanH 1.00 nM, read-out: IC50): 4.87 µM
